Data reported in a compilation of properties of binary mixtures (doi:10.1039/c6ra15476j).

Test: xn = mol fraction of the nth substance listed
Settings: 100 kPa

CC(=O)c1ccccc1 + CCOS(=O)(=O)[O-].CC[n+]1ccn(C)c1
Settings | speed of sound, 293.15 K [m/s] | speed of sound, 303.15 K [m/s] | speed of sound, 313.15 K [m/s] | speed of sound, 323.15 K [m/s] | speed of sound, 333.15 K [m/s] | viscosity, 293.15 K [mPa·s] | viscosity, 303.15 K [mPa·s] | viscosity, 313.15 K [mPa·s] | viscosity, 323.15 K [mPa·s] | viscosity, 333.15 K [mPa·s]
x1 = 0.0505 | 1691 | 1663 | 1637 | 1611 | – | 68 | 44 | 29 | 20.6 | –
x1 = 0.0997 | 1684 | 1656 | 1628 | 1601 | – | 56 | 35 | 23.9 | 17.1 | –
x1 = 0.2 | 1669 | – | 1610 | 1581 | 1521 | 40 | – | 18 | 13.1 | 11.9
x1 = 0.3008 | 1652 | 1621 | 1591 | – | 1503 | 30.2 | 21.3 | 14.5 | – | 9.6
x1 = 0.4002 | 1634 | – | 1571 | 1540 | 1485 | 22.6 | – | 11.9 | 9.3 | 8.3
x1 = 0.5006 | 1615 | 1583 | 1550 | 1518 | – | 14.9 | 11.8 | 9.8 | 8 | 6.8
x1 = 0.5999 | 1596 | 1562 | 1529 | – | 1448 | 10.1 | 8.4 | 7.2 | – | 4.9
x1 = 0.6921 | 1577 | 1542 | – | 1473 | 1428 | 6.9 | 6.6 | – | 3.4 | 3.6
x1 = 0.7973 | – | – | 1481 | 1446 | 1404 | – | – | 4.6 | 2.19 | 1.86
x1 = 0.8999 | 1526 | 1489 | – | – | 1379 | 3.7 | 2.88 | – | – | 1.66
x1 = 0.9502 | 1511 | – | – | 1402 | 1365 | 3.04 | – | – | 1.68 | 1.46
x1 = 1 | 1497 | – | – | – | 1352 | 1.91 | – | – | – | 1.02

CCOS(=O)(=O)[O-].CC[n+]1ccn(C)c1 + CC(=O)c1ccccc1
x2 = 0
Settings | speed of sound [m/s] | viscosity [mPa·s]
293.15 K | 1695 | 98
303.15 K | 1670 | 60
323.15 K | 1623 | 27.9

CC(=O)c1ccccc1 + CC[n+]1ccn(C)c1.F[B-](F)(F)F
Settings | speed of sound, 293.15 K [m/s] | speed of sound, 303.15 K [m/s] | speed of sound, 313.15 K [m/s] | speed of sound, 323.15 K [m/s] | speed of sound, 333.15 K [m/s] | viscosity, 293.15 K [mPa·s] | viscosity, 303.15 K [mPa·s] | viscosity, 313.15 K [mPa·s] | viscosity, 323.15 K [mPa·s] | viscosity, 333.15 K [mPa·s]
x1 = 0.0416 | 1640 | 1608 | 1581 | 1555 | – | 32.1 | 21.2 | 15.4 | 11.6 | –
x1 = 0.094 | 1638 | – | 1572 | – | – | 25.5 | – | 12.3 | – | –
x1 = 0.195 | 1628 | 1591 | 1560 | 1530 | 1502 | 21.7 | 14.3 | 10.9 | 8.1 | 7.2
x1 = 0.2999 | – | 1581 | 1550 | 1519 | 1490 | – | 12.9 | 9.5 | 7.3 | 5.8
x1 = 0.4003 | – | 1571 | 1538 | – | – | – | 11 | 8.1 | – | –
x1 = 0.4989 | 1598 | – | 1527 | – | 1462 | 12.3 | – | 6 | – | 3.49
x1 = 0.5979 | 1583 | 1546 | 1511 | 1477 | 1442 | 8.7 | 6.5 | 5.2 | 4.14 | 3.39
x1 = 0.7005 | 1564 | 1528 | 1491 | 1457 | 1422 | 6.8 | 4.97 | 3.84 | 3.1 | 2.58
x1 = 0.8007 | 1543 | 1507 | 1472 | 1437 | 1400 | 4.74 | 3.61 | 3.09 | 2.36 | 2
x1 = 0.8918 | 1522 | 1485 | – | 1413 | – | 3.2 | 2.56 | – | 1.76 | –
x1 = 0.9498 | 1509 | 1471 | – | 1398 | – | 2.45 | 2.03 | – | 1.42 | –
x1 = 1 | 1497 | 1460 | 1423 | 1387 | – | 1.91 | 1.65 | 1.37 | 1.17 | –

CC(=O)c1ccccc1 + CCCC[n+]1ccn(C)c1.F[P-](F)(F)(F)(F)F
viscosity [mPa·s]
Settings | 293.15 K | 303.15 K | 313.15 K | 323.15 K | 333.15 K
x1 = 0.0504 | 176 | 89 | 62 | 41 | 27.6
x1 = 0.0913 | 129 | 68 | 45.8 | – | –
x1 = 0.1983 | 88 | 48.5 | 35 | 26.5 | 18.6
x1 = 0.2999 | 81 | – | 32.3 | 23.2 | –
x1 = 0.3908 | 73 | 40.9 | 28.3 | – | 14.2
x1 = 0.4973 | 60 | 32.4 | – | 15.2 | 10.2
x1 = 0.5999 | – | 22.9 | – | 11.6 | 9.3
x1 = 0.697 | 35.6 | 18.5 | 12.3 | – | 8.3
x1 = 0.7999 | 28.2 | 14.3 | 8 | – | 4.67
x1 = 0.9002 | 16.2 | 7.7 | 5.6 | 4.34 | –
x1 = 0.95 | 8.4 | 4.64 | 3.57 | – | 1.62
x1 = 1 | 1.91 | 1.65 | 1.37 | 1.17 | –

CC[n+]1ccn(C)c1.F[B-](F)(F)F + CC(=O)c1ccccc1
x2 = 0
Settings | speed of sound [m/s] | viscosity [mPa·s]
303.15 K | 1618 | 28.2
313.15 K | 1595 | 20
323.15 K | 1572 | 14.9
333.15 K | 1550 | 11.5

CCCC[n+]1ccn(C)c1.F[P-](F)(F)(F)(F)F + CC(=O)c1ccccc1
x2 = 0
Settings | viscosity [mPa·s]
293.15 K | 293
303.15 K | 162
323.15 K | 62
333.15 K | 42.3
